4 compounds from ChEMBL document CHEMBL1154336, “The discovery and optimisation of benzazepine sulfonamide and sulfones as potent agonists of the motilin receptor” (Bioorg Med Chem Lett, 2009) can be followed below.

Values after ≈ are worked out from the molar mass of the structure shown. Where only a bound is given, the exact number is not on record here.

Data set [1] in a line: Half life in mouse at 10 mg/kg, po. In kind it is ADME, organism-based. Also noted: dose 10 mg/kg, route oral. The following applies: in vivo.
For data set [2], the system named is Liver microsomes. As to the kind of experiment: Intrinsic clearance in rat liver microsomes after 30 mins. In kind it is ADME, Microsome. The following applies: 0.5 h.
The nature of data set [3]: Tmax in mouse at 10 mg/kg, po. The arrangement: dose 10 mg/kg, route oral. It is filed as ADME, organism-based. The following applies: in vivo.
Data set [4] addresses T1, Cytochrome P450 3A4 (Homo sapiens, UniProt P08684). As to the kind of experiment: Inhibition of human recombinant CYP3A4 using 7-{3-(4-phenylpiperazin-1-ylmethyl)benzyl}resorufin as substrate. In kind it is ADME.
The next data set has as its target Cytochrome P450 2D6 (Homo sapiens, UniProt P10635). As to the kind of experiment: Inhibition of human recombinant CYP2D6. In kind it is ADME.
Data set [5] deals with T1, Cytochrome P450 3A4. The data set can be described thus: Inhibition of human recombinant CYP3A4 using diethoxyfluorescein as substrate. It is filed as ADME.
Data set [6] deals with 5-hydroxytryptamine receptor 6 (Homo sapiens, UniProt P50406). As to the kind of experiment: Agonist activity at 5HT6 receptor. It is filed as functional.
A further data set has as its target Cytochrome P450 2C19 (Homo sapiens, UniProt P33261). The data set can be described thus: Inhibition of human recombinant CYP2C19. It is filed as ADME.
The target of a further data set is D(2) dopamine receptor (Homo sapiens, UniProt P14416). The data set can be described thus: Agonist activity at dopamine D2 receptor. In kind it is functional.
Data set [7] has as its target Growth hormone secretagogue receptor type 1 (Homo sapiens, UniProt Q92847). As to the kind of experiment: Agonist activity at human ghrelin receptor. It is filed as functional.
For the next data set, the target named is Motilin receptor (Homo sapiens, UniProt O43193). The data set can be described thus: Agonist activity at human recombinant motilin receptor expressed in CHO cells by FLIPR assay. In kind it is functional, cell-based.
A further data set concerns the target T2, Cytochrome P450 1A2 (Homo sapiens, UniProt P05177).
T2 sequence (P05177 whole entry): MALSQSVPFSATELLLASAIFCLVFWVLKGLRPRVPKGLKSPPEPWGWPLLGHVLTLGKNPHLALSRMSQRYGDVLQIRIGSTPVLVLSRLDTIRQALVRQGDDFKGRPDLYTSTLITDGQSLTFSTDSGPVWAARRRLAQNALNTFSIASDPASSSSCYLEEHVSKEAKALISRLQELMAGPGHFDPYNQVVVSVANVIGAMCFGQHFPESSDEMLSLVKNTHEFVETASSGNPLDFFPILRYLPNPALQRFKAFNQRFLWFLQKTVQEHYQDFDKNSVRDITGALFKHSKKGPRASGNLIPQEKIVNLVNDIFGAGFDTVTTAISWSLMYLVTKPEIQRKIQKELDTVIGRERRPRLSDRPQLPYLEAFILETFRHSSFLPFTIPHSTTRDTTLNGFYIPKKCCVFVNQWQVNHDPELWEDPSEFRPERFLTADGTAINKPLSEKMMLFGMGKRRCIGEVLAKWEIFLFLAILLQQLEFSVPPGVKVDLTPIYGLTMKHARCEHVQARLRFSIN
As to the kind of experiment: Inhibition of human recombinant CYP1A2. In kind it is ADME.

The nature of data set [8]: Cmax in mouse at 10 mg/kg, po. In kind it is ADME, organism-based. The arrangement: dose 10 mg/kg, route oral. The following applies: in vivo.
The target of data set [9] is Voltage-gated inwardly rectifying potassium channel KCNH2 (Homo sapiens, UniProt Q12809). The data set can be described thus: Inhibition of human ERG.
Data set [10] in a line: Aqueous solubility at pH 7.4. It is filed as physicochemical.
In data set [11] the test system is Liver microsomes. As to the kind of experiment: Intrinsic clearance in human liver microsomes after 30 mins. It is filed as ADME, Microsome. The following applies: 0.5 h.
The next data set deals with D(3) dopamine receptor (Homo sapiens, UniProt P35462). As to the kind of experiment: Agonist activity at dopamine D3 receptor. In kind it is functional.
Another data set has as its target Cytochrome P450 2C9 (Homo sapiens, UniProt P11712). The data set can be described thus: Inhibition of human recombinant CYP2C9. In kind it is ADME.
Another data set has as its system Stomach. The data set can be described thus: Increase in electric field stimulated contractile response in New Zealand White rabbit gastric antrum at 3 uM after 60 mins. In kind it is functional. The following applies: Oryctolagus cuniculus, 1 h.

D(3) dopamine receptor, sequence (P35462 whole entry): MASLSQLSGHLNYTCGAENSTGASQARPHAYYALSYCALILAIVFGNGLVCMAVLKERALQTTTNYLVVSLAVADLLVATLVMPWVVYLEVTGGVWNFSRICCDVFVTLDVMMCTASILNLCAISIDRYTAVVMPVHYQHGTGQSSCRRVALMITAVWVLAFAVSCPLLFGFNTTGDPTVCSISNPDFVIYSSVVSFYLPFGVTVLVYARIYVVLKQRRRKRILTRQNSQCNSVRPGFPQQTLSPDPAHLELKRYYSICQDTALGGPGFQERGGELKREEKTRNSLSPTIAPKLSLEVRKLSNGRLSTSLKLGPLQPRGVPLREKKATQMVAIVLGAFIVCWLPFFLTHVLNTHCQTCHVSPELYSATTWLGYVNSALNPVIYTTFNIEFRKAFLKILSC
D(2) dopamine receptor, sequence (P14416 whole entry): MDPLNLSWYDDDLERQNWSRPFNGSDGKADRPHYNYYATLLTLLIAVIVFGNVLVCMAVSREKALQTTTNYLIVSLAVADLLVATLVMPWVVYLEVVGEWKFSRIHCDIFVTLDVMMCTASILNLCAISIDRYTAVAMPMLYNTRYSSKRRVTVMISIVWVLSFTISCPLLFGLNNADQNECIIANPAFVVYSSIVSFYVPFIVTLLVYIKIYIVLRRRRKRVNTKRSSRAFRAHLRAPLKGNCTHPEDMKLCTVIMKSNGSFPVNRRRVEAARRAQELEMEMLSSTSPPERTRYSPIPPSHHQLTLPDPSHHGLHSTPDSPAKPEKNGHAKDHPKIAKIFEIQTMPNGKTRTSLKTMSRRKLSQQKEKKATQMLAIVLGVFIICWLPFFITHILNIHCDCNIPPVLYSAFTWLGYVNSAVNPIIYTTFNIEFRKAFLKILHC
Growth hormone secretagogue receptor type 1, sequence (Q92847 whole entry): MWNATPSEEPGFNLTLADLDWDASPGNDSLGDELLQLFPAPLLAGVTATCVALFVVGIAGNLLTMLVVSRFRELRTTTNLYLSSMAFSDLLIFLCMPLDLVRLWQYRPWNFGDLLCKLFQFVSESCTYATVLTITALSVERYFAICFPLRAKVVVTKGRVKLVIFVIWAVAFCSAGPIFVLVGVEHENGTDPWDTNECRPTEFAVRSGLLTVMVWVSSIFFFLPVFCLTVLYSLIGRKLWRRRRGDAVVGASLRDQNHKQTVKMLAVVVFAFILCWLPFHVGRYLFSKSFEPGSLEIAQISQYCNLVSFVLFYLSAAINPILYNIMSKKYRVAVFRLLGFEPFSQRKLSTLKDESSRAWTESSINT
Cytochrome P450 2D6, sequence (P10635 whole entry): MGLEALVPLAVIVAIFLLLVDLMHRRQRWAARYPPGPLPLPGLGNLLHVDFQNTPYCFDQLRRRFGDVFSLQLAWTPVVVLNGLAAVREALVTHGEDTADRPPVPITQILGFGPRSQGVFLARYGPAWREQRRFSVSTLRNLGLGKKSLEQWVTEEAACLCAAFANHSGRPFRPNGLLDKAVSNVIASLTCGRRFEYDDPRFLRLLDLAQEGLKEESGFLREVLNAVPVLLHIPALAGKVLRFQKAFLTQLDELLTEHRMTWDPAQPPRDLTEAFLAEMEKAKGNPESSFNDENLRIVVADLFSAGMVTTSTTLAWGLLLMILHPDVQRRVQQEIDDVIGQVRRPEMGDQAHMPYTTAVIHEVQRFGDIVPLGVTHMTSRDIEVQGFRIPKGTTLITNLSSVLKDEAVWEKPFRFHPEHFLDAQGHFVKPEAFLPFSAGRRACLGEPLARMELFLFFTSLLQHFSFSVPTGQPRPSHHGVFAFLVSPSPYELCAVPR
T1 sequence (P08684 whole entry): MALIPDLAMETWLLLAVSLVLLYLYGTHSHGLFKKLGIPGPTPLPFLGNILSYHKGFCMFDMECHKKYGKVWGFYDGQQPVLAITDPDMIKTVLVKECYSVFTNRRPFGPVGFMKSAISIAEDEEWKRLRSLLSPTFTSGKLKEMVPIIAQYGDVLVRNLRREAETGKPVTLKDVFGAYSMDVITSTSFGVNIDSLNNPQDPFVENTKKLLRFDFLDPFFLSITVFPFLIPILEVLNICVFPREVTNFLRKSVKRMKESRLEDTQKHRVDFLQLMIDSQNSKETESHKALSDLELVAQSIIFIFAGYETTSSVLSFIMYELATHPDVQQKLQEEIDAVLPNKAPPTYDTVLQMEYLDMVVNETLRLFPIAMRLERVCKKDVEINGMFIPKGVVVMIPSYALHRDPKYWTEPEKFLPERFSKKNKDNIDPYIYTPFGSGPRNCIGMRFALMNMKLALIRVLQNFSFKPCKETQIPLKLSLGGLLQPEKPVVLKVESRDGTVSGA
Motilin receptor, sequence (O43193 whole entry): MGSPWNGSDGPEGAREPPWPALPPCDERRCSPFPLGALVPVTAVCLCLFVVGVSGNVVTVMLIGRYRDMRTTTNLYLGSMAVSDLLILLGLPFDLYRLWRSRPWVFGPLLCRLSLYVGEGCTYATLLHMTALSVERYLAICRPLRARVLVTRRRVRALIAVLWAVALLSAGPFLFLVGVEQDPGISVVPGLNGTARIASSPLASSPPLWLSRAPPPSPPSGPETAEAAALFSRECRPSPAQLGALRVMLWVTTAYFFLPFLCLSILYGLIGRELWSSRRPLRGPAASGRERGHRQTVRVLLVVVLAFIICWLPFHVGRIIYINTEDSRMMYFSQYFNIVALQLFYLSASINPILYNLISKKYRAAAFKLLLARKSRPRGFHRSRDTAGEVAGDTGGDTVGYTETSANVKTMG
5-hydroxytryptamine receptor 6, sequence (P50406 whole entry): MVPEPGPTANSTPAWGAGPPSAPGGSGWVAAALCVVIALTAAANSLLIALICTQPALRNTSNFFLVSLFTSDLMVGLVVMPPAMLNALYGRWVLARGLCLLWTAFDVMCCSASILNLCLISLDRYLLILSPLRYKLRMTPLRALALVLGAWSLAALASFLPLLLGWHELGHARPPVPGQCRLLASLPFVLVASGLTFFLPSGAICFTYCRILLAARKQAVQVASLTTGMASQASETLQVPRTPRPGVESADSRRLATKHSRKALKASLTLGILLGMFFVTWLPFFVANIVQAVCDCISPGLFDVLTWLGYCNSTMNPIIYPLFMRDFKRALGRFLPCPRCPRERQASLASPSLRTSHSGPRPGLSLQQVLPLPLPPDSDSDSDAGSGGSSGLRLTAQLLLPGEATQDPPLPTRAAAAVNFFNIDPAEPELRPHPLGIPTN
Cytochrome P450 2C19, sequence (P33261 whole entry): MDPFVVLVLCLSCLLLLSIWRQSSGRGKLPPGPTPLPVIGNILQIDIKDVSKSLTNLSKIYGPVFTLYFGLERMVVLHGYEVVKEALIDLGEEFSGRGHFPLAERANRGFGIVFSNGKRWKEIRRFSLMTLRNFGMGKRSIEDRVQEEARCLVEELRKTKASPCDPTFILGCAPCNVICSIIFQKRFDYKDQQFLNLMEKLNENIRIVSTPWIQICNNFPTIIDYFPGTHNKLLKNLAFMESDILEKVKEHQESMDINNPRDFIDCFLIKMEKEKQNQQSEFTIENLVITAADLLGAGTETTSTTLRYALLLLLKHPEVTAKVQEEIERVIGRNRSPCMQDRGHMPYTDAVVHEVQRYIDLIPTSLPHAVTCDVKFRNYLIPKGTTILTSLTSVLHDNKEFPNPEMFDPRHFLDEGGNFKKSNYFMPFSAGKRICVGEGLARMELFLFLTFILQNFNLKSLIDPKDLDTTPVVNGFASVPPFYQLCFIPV
Cytochrome P450 2C9, sequence (P11712 whole entry): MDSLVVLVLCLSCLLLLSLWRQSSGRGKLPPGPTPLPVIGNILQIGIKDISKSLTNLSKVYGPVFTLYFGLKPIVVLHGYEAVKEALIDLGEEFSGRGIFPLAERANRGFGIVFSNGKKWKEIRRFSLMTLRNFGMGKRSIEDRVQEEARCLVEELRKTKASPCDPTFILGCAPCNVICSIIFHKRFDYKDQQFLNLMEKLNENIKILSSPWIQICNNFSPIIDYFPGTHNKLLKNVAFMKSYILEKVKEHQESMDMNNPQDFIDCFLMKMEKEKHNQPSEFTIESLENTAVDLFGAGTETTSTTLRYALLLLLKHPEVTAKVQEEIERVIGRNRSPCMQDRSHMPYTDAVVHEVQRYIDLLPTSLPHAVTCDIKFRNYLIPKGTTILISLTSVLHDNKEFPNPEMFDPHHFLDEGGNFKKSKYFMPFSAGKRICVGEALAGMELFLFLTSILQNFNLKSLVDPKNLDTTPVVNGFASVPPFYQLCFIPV

For the compound `O=S(=O)(Nc1ccc2c(c1)CCN(Cc1cc[nH]n1)CC2)c1ccc(N2CCOCC2)nc1`, the half-life in [1] was 1.5 h. Besides, the CL with Liver microsomes [2] came out at 3.8 mL/min/g; with Liver microsomes [11], 6.6 mL/min/g. For the same compound, in [3], the time to peak (Tmax) came out at 2 h. Moreover, the half-maximal inhibitory concentration (IC50) at Cytochrome P450 3A4 [4] was above 8000 nM; at Cytochrome P450 2D6, below 1000 nM; at Cytochrome P450 3A4 [5], above 8000 nM; on Cytochrome P450 2C19, above 8000 nM; at Cytochrome P450 1A2, above 8000 nM; in data set [9], above 15800 nM. In addition, the Ki was 631 nM in [6], above 3160 nM at D(2) dopamine receptor and 631 nM on D(3) dopamine receptor. In addition, the concentration giving a half-maximal response (EC50) was above 1000 nM in data set [7] and 6.31 nM at Motilin receptor. The compound further registered a Cmax in data set [8] of 273 ng/mL. For the same compound, the concentration in solution in data set [10] (solubility) came to 371 µg/mL (≈ 0.792 mM).
`CCCCc1ccc(S(=O)(=O)Nc2ccc3c(c2)CCN(Cc2ccn[nH]2)CC3)cc1`: the IC50 is 1900 nM on Cytochrome P450 3A4 [4]; 600 nM at Cytochrome P450 2C9; below 100 nM at Cytochrome P450 2D6; 800 nM at Cytochrome P450 3A4 [5]; 8800 nM at Cytochrome P450 2C19; 29000 nM on Cytochrome P450 1A2. This compound had an IC50 in data set [9] of 2510 nM. In addition, the inhibition constant Ki on D(2) dopamine receptor was 100 nM; at D(3) dopamine receptor it was 3.98 nM. Also, the EC50 was 79.4 nM in data set [7] and 2.51 nM on Motilin receptor. Besides, the concentration in solution in data set [10] (solubility) came to 10000 µg/mL (≈ 22.8 mM).
Regarding `O=S(=O)(Cc1ccc2c(c1)CCNCC2)c1ccc(-c2ccc(F)cc2)cc1`, the CL in the data set with Liver microsomes [2] and with Liver microsomes [11] was below 1 mL/min/g throughout. For the same compound, the IC50 at Cytochrome P450 2D6 came to 200 nM. Further, the figures for the EC50 (in data set [7]; on Motilin receptor) were above 10000 nM and 12.6 nM, respectively. In the data set on Stomach, this compound displayed an Emax at 3 µM of 166%.
For `O=S(=O)(Nc1ccc2c(c1)CCN(Cc1cc[nH]n1)CC2)c1ccc(-c2ccccn2)s1`, the IC50 at Cytochrome P450 2C9 worked out at 400 nM; at Cytochrome P450 2D6, 200 nM. For the same compound, the Ki is 158 nM in data set [6], above 794 nM at D(2) dopamine receptor and 200 nM on D(3) dopamine receptor. Moreover, the half-maximal effective concentration (EC50) in data set [7] is above 10000 nM; on Motilin receptor, 7.94 nM. Further, the Emax at 3 µM in the data set with Stomach is 190%.
